According to patent US20060223073A1, “Methods of using a DNase I-like enzyme” (priority 2005, published 2006):

Biological target: bovine pancreatic DNase I (Bos taurus, UniProt P00639)
Settings: for reduction of enzyme activity induced by the addition of salt: 100 mM sodium chloride added to reaction with 40% (v/v) alcohol (FIG. 2); for DNase I activity, % of Standard conditions: alcohol at 40% (v/v) in the Standard reaction, without sodium chloride (FIG. 2)
Experimental: The enzymatic hydrolysis of calf thymus genomic DNA was assayed using a method modified from that described by Desai and Shankar (Eur. J. Biochem., 2000; 267: 5123-5135). The standard reaction mixture was 0.1 mL volume, containing 30 μg of sonicated native calf thymus genomic DNA (Sigma, St. Louis Mo., #D-3664), in a buffer solution composed of 100 mM Tris HCl(pH 8.0)/10 mM MgSO4/1 mM CaCl2, with appropriately diluted DNase I (usually 0.02-1.0 Enzyme Units, as defined below). The reaction was initiated by the addition of enzyme, with incubation at room temperature for a defined period of time (usually 10-20 minutes), after which the reaction was terminated by rapid sequential addition of 0.1 mL of 1 mg/mL Bovine Serum Albumin (Sigma, #A3803) and 1.0 mL of ice cold 2% (v/v) Perchloric Acid. The terminated reaction mixture was vortex mixed, then chilled on ice for 20-30 minutes, follwed by centrifugation at 16,000×g for 10 minutes at 4 degrees centrigrade. The clarified supernatant contains acid-soluble oligonucleotides liberated by the action of DNase I-like activity, at concentrations determined using absorbance measurements determined in a 1 cm pathlength cell in the Agilent 8453 spectrophotometer (Agilent Technologies, Wilmington Del.). A molar extinction coefficient of 10,000 M^−1cm^−1 was employed for oligonucleotide concentration estimation in the acidic solution. Unit activity under these assay conditions is defined as umol of acid-soluble oligonucleotides generated per minute at 25 degrees centigrade. In the experiments shown in the examples that follow, bovine pancreatic DNase I is employed to illustrate the effects of various manipulations on the activity of this enzyme. Typically, the reaction employs approximately 0.1 enzyme units, as defined by the Kunitz assay, as discussed above (see Kunitz. J. Gen. Physiol. 1950; 33:349-362).
Bovine pancreatic DNase I (Fermentas, #EN0523) was assayed for gDNA hydrolytic activity, as described above, using the Standard reaction conditions, but modified by the inclusion of various quantities of iso-propanol (i-propanol, 2-propanol), with or without the further inclusion of sodium chloride at 100 mM.

Sequence of bovine pancreatic DNase I (P00639 23-282): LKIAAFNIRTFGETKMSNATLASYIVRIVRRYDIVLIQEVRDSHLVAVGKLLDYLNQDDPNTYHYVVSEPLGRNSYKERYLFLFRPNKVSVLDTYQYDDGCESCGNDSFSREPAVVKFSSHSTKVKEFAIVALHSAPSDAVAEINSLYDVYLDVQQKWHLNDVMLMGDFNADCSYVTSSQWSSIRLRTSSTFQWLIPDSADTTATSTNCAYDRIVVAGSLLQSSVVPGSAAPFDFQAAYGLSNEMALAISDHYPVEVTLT

| Compound | reduction of enzyme activity induced by the addition of salt | DNase I activity, % of Standard conditions | DNase I activity, % of the Standard activity level (20% i-propanol added to solution containing 100 mM sodium chloride (FIG. 1)) [%] | DNase I activity relative to standard conditions (20% i-propanol, no sodium chloride, room temperature (FIG. 1)) | DNase I enzyme activity observed (high salt (100 mM sodium chloride) and high alcohol content (FIG. 1)) | DNase I activity, % of the standard condition (higher concentrations of i-propanol (above 20%, up to and above 80%), no sodium chloride (FIG. 1)) | DNase I activity, % of Standard reaction conditions (alcohol at 40% (v/v) plus 100 mM sodium chloride (FIG. 2)) |
| --- | --- | --- | --- | --- | --- | --- | --- |
| CCO [Ethanol] | three-fold reduction | 40% | – | – | – | – | – |
| CC(C)O [i-propanol, iso-propanol] | least prevented the inhibition of the enzyme by salt | 40% | 101 | more than doubling the activity | greater than 50% | about 50% | – |
| n-propanol | – | about 10% | – | – | – | – | less than 5% |
